Structures can show the parent of a compound that is named as a salt.

From patent US20250144067A1, “PERSONALIZED STARVATION THERAPY FOR CANCER” (Faeth Therapeutics, Inc., priority 2021, published 2025) come the findings set out here.

For assay [1], the system named is NCI-H292 lung cancer cells. Put plainly: FDA drug screening, complete media vs cholesterol-free media with simvastatin (TABLE 2). As to conditions: for Cholesterol-free media + simvastatin (0.04 μM) / Complete Media: NCI-H292 cells. In kind it is cell-based, human.
The subject of assay [2] is NCI-H292 lung cancer cells. Nature of the assay: FDA drug screening, complete media vs cholesterol-free media without statin (TABLE 1). The assay is classed as cell-based, human.
[3] abbreviates: FDA drug library screen, cholesterol-free media with simvastatin 0.04 μM.
[4] abbreviates: FDA drug library screen, complete media.
Setting [5] is: complete media vs cholesterol-free media + simvastatin (0.04 μM), >0 enhanced anti-cancer activity, about 0 neutral, <0 antagonist.
Setting [6] is: Complete minus Cholesterol-free, >0 enhanced anti-cancer activity, about 0 neutral, <0 antagonist.
Where [7] appears, read: NCI-H292 cells, cholesterol-free media without statin.
The mark [8] stands for this setting: drug in cholesterol-free media with simvastatin 0.04 μM.
Where [9] appears, read: NCI-H292 cells, cholesterol-free media without statin, FDA drug library screen.
Where [10] appears, read: NCI-H292 cells, complete media, FDA drug library screen.
[11] abbreviates: complete vs cholesterol-free media, >0 enhanced anti-cancer activity, about 0 neutral, <0 antagonist.
Setting [12] is: cholesterol-free media with simvastatin 0.04 μM, FDA drug library screen (TABLE 2).
[13] abbreviates: complete media, FDA drug library screen (TABLE 2).
The mark [14] stands for this setting: complete media minus cholesterol-free media + simvastatin (0.04 μM), >0 enhanced anti-cancer activity, about 0 neutral, <0 antagonist.
[15] abbreviates: complete media minus cholesterol-free media + simvastatin, […].
[16] abbreviates: Complete minus Cholesterol-free, […].
The mark [17] stands for this setting: NCI-H292 cells, FDA drug library screen, cholesterol-free media without statin.
[18] abbreviates: NCI-H292 cells, FDA drug library screen, complete media.
Setting [19] is: FDA library drug in cholesterol-free media with simvastatin 0.04 μM.
The mark [20] stands for this setting: FDA library drug in complete media.
Where [21] appears, read: complete media minus cholesterol-free media + simvastatin, >0 enhanced anti-cancer activity, about 0 neutral, <0 antagonist.
The mark [22] stands for this setting: Complete minus Cholesterol-free, greater than 0 enhanced anti-cancer activity, about 0 neutral, below 0 antagonists.
The mark [23] stands for this setting: NCI-H292 cells in cholesterol-free media without statin.
Setting [24] is: NCI-H292 cells in complete media.
The mark [25] stands for this setting: complete vs cholesterol-free media, greater than 0 enhanced anti-cancer activity, about 0 neutral, below 0 antagonists.
[26] abbreviates: Complete minus Cholesterol-free, greater than 0 enhanced anti-cancer activity, about 0 neutral, below 0 antagonist.
The mark [27] stands for this setting: cholesterol-free media with simvastatin 0.04 μM, […].

Take `C=CC(=O)Nc1cc(Nc2nccc(-c3cn(C4CC4)c4ccccc34)n2)c(OC)cc1N(C)CCN(C)C` [Almonertinib]: the “Cholesterol-free media + simvastatin (0.04 μM)” value in assay [1] (setting [3]) is given as 0.4298. Besides, the “Complete Media” value in assay [1] (setting [4]) is given as 0.2855. For the same molecule, the Difference was −0.14 in assay [1] (setting [5]) and −0.19 in assay [2] (setting [6]). In assay [2] (setting [7]), this molecule showed a Cholesterol-free of 0.4646. Besides, in assay [2] (NCI-H292 cells, complete media), the Complete turned out to be 0.2735.
Take `CC(C)NCC(O)COc1cccc2[nH]ccc12` (stereo not shown) [Pindolol]: in assay [1] (setting [8]), the “Cholesterol-free media + simvastatin (0.04 μM)” value was determined as 1.032. Further, the “Complete Media” value in assay [1] (drug in complete media) worked out at 0.7777. Besides, the values for the Difference in assay [1] (setting [5]) and in assay [2] (setting [11]) were −0.25 and 0.09, respectively. The Cholesterol-free in assay [2] (setting [9]) stood at 0.8852. In assay [2] (setting [10]), this molecule yielded a Complete of 0.973.
For the molecule `C=C(c1ccc(C(=O)O)cc1)c1cc2c(cc1C)C(C)(C)CCC2(C)C` [Bexarotene], the “Cholesterol-free media + simvastatin (0.04 μM)” value in assay [1] (setting [3]) is 1.087. In addition, the “Complete Media” value in assay [1] (setting [4]) came out at 0.9865. The Difference in assay [1] (setting [5]) is listed as −0.10; in assay [2] (setting [6]), −0.22. In assay [2] (setting [7]), this molecule displayed a Cholesterol-free of 1.341. The same molecule showed a Complete in assay [2] (NCI-H292 cells, complete media) of 1.124.
Consider `CC[C@@]1(O)C(=O)OCc2c1cc1n(c2=O)Cc2c-1nc1ccccc1c2CCNC(C)C` [Belotecan (hydrochloride)], for which the “Cholesterol-free media + simvastatin (0.04 μM)” value in assay [1] (setting [12]) is given as −0.0005237. The “Complete Media” value in assay [1] (setting [13]) is on record as 0.007701. Further, the Difference in assay [1] (setting [14]) stood at 0.01; in assay [2] (setting [6]), 0.00. In assay [2] (setting [9]), the Cholesterol-free was found to be 0.00566. For the same molecule, in assay [2] (setting [10]), the Complete was found to be 0.01027.
Turning to Trimebutine (maleate), in assay [1] (setting [3]), the “Cholesterol-free media + simvastatin (0.04 μM)” value is 0.6516. For the same molecule, the “Complete Media” value in assay [1] (setting [4]) is 0.9282. Besides, the Difference in assay [1] (setting [15]) is on record as 0.28; in assay [2] (setting [16]), −0.13. Besides, the Cholesterol-free in assay [2] (setting [17]) was 0.9442. In assay [2] (setting [18]), the Complete was 0.8142.
Consider `C#C[C@]1(O)CC[C@H]2[C@@H]3CCc4cc(OC)ccc4[C@H]3CC[C@@]21C` [Mestranol], for which the “Cholesterol-free media + simvastatin (0.04 μM)” value in assay [1] (setting [19]) came out at 1.197. Besides, the “Complete Media” value in assay [1] (setting [20]) was 0.9303. The Difference in assay [1] (setting [5]) is recorded as −0.27; in assay [2] (setting [6]) it was −0.06. Further, the Cholesterol-free in assay [2] (setting [9]) amounted to 0.9912. In assay [2] (setting [10]), this molecule had a Complete of 0.9277.
Regarding `O=C(OC[C@H]1O[C@@H](OC(=O)c2cc(O)c(O)c(OC(=O)c3cc(O)c(O)c(O)c3)c2)[C@H](OC(=O)c2cc(O)c(O)c(OC(=O)c3cc(O)c(O)c(O)c3)c2)[C@@H](OC(=O)c2cc(O)c(O)c(OC(=O)c3cc(O)c(O)c(O)c3)c2)[C@@H]1OC(=O)c1cc(O)c(O)c(OC(=O)c2cc(O)c(O)c(O)c2)c1)c1cc(O)c(O)c(OC(=O)c2cc(O)c(O)c(O)c2)c1` [Tannic acid], the “Cholesterol-free media + simvastatin (0.04 μM)” value in assay [1] (setting [3]) was found to be 1.824. Further, the “Complete Media” value in assay [1] (setting [4]) stood at 2.065. The Difference is 0.24 in assay [1] (setting [21]) and −0.60 in assay [2] (setting [22]). The molecule also returned a Cholesterol-free in assay [2] (setting [23]) of 1.391. The Complete in assay [2] (setting [24]) stood at 0.7941.
On to Quetiapine (hemifumarate), for which the “Cholesterol-free media + simvastatin (0.04 μM)” value in assay [1] (setting [3]) is given as 0.6141. The “Complete Media” value in assay [1] (setting [4]) was 0.8428. Besides, the Difference was 0.23 in assay [1] (setting [21]) and −0.22 in assay [2] (setting [6]). The same molecule had a Cholesterol-free in assay [2] (setting [7]) of 0.9339. In addition, the Complete in assay [2] (NCI-H292 cells, complete media) amounted to 0.7112.
As for `Cc1ncc([N+](=O)[O-])n1C` [Dimetridazole], the “Cholesterol-free media + simvastatin (0.04 μM)” value in assay [1] (setting [19]) amounted to 1.602. In assay [1] (setting [20]), the “Complete Media” value is listed as 0.8915. The figures for the Difference in assay [1] (setting [5]) and in assay [2] (setting [25]) were −0.71 and −0.35, respectively. In assay [2] (setting [7]), the Cholesterol-free is 1.219. In assay [2] (NCI-H292 cells, complete media), the Complete turned out to be 0.8738.
On to `CNC(=O)c1ccc(N2C(=S)N(c3ccc(C#N)c(C(F)(F)F)c3)C(=O)C2(C)C)cc1F` [Enzalutamide], for which, in assay [1] (setting [19]), the “Cholesterol-free media + simvastatin (0.04 μM)” value came out at 0.7893. Besides, the “Complete Media” value in assay [1] (setting [20]) came to 0.3116. The Difference in assay [1] (setting [5]) is listed as −0.48; in assay [2] (setting [11]), 0.44. The molecule also registered a Cholesterol-free in assay [2] (setting [9]) of 0.885. The molecule further returned a Complete in assay [2] (setting [10]) of 1.326.
Regarding `CC(C)Cc1ccc(C(C)C(=O)OCc2ccccn2)cc1` (stereo not shown) [Ibuprofen piconol], the “Cholesterol-free media + simvastatin (0.04 μM)” value in assay [1] (setting [19]) is 1.357. For the same molecule, in assay [1] (setting [20]), the “Complete Media” value came to 0.8958. Further, the Difference is −0.46 in assay [1] (setting [5]) and −0.18 in assay [2] (setting [26]). This molecule also had a Cholesterol-free in assay [2] (setting [17]) of 1.26. The same molecule yielded a Complete in assay [2] (setting [18]) of 1.082.
As to Tegaserod (maleate), in assay [1] (setting [27]), the “Cholesterol-free media + simvastatin (0.04 μM)” value came to 0.7216. In addition, the “Complete Media” value in assay [1] (complete media, […]) is on record as 0.7473. Moreover, the results for the Difference in assay [1] (setting [15]) and in assay [2] (setting [16]) were 0.03 and −0.26, respectively. Also, in assay [2] (setting [7]), the Cholesterol-free is 0.9824. In assay [2] (NCI-H292 cells, complete media), the Complete was 0.7272.
Turning to `CCOCCn1c(C2CCN(CCc3ccc(C(C)(C)C(=O)O)cc3)CC2)nc2ccccc21` [Bilastine], the “Cholesterol-free media + simvastatin (0.04 μM)” value in assay [1] (setting [3]) was determined as 1.167. For the same molecule, the “Complete Media” value in assay [1] (setting [4]) was 1.071. The Difference in assay [1] (setting [5]) is on record as −0.10; in assay [2] (setting [6]), −0.27. In assay [2] (setting [7]), this molecule showed a Cholesterol-free of 1.435.
On to `CCc1c2c(nc3ccc(OC(=O)N4CCC(N5CCCCC5)CC4)cc13)-c1cc3c(c(=O)n1C2)COC(=O)[C@]3(O)CC` [Irinotecan (hydrochloride trihydrate)], for which, in assay [1] (setting [3]), the “Cholesterol-free media + simvastatin (0.04 μM)” value was found to be 0.6283. In assay [1] (setting [4]), the “Complete Media” value is on record as 0.5165. The Difference is given as −0.11 in assay [1] (setting [5]) and −0.10 in assay [2] (setting [26]). The molecule also yielded a Cholesterol-free in assay [2] (setting [17]) of 0.3845. In addition, the Complete in assay [2] (setting [18]) was determined as 0.2808.
Regarding `CC(C)(CO)[C@H](O)C(=O)NCCCO` [D-Panthenol], the “Cholesterol-free media + simvastatin (0.04 μM)” value in assay [1] (setting [8]) worked out at 1.067. Also, in assay [1] (drug in complete media), the “Complete Media” value is listed as 0.817. Also, the Difference in assay [1] (setting [5]) was −0.25; in assay [2] (setting [26]) it was −0.09. This molecule displayed a Cholesterol-free in assay [2] (setting [17]) of 1.002. The molecule further came in with a Complete in assay [2] (setting [18]) of 0.9087.
For Vitamin B12, in assay [1] (setting [27]), the “Cholesterol-free media + simvastatin (0.04 μM)” value is 1.198. For the same molecule, the “Complete Media” value in assay [1] (complete media, […]) is 1.289. The figures for the Difference in assay [1] (setting [15]) and in assay [2] (setting [16]) were 0.09 and −0.19, respectively. The molecule also returned a Complete in assay [2] (NCI-H292 cells, complete media) of 0.9199.
Regarding `COc1cc2nc(N3CCN(C(=O)[C@H]4CCCO4)CC3)nc(N)c2cc1OC` [(R)-Terazosin], in assay [1] (setting [12]), the “Cholesterol-free media + simvastatin (0.04 μM)” value is 0.9379. Besides, the “Complete Media” value in assay [1] (setting [13]) came out at 0.9227. In addition, the Difference in assay [1] (setting [14]) was −0.02; in assay [2] (setting [25]), −0.41. For the same molecule, the Cholesterol-free in assay [2] (setting [7]) is 1.165. The Complete in assay [2] (NCI-H292 cells, complete media) is on record as 0.7551.
For `O=C1C2CC3CC1CC(O)(C3)C2` [Idramantone], the “Cholesterol-free media + simvastatin (0.04 μM)” value in assay [1] (setting [3]) came to 1.208. Further, the “Complete Media” value in assay [1] (setting [4]) came out at 1.085. Moreover, the Difference is recorded as −0.12 in assay [1] (setting [5]) and −0.71 in assay [2] (setting [22]). For the same molecule, the Cholesterol-free in assay [2] (setting [23]) is on record as 1.638. Also, the Complete in assay [2] (setting [24]) is 0.9237.
As for `Cc1c(O)cccc1C(=O)N[C@@H](CSc1ccccc1)[C@H](O)CN1C[C@H]2CCCC[C@H]2C[C@H]1C(=O)NC(C)(C)C` [Nelfinavir], the “Cholesterol-free media + simvastatin (0.04 μM)” value in assay [1] (setting [19]) was 1.243. Also, the “Complete Media” value in assay [1] (setting [20]) is recorded as 0.8828. Further, the Difference in assay [1] (setting [5]) is given as −0.36; in assay [2] (setting [6]), −0.25. The molecule also returned a Cholesterol-free in assay [2] (setting [7]) of 1.095. In assay [2] (NCI-H292 cells, complete media), this molecule gave a Complete of 0.8463.
